≈ marks a conversion by molar mass, not a printed value.
Key:
[1] = test system: Candida albicans ON28; assay: Minimum inhibitory concentration (MIC) against Candida albicans ON28; assay type: cell-based; settings: ON28, 72 h, TC broth medium, 10^4 spores/ml, 37° C., 3 days
Experimental: (§1) MIC was determined in accordance with the method of M. S. Marriott [25th Interscience Conference on Antimicrobial Agents and Chemotherapy, p. 243 (1985)].
(§2) Candida albicans ON28 was cultured in a sabouraud dextrose agar medium containing 10 g of neopeptone, 20 g of glucose and 15 g of agar per liter, at 30° C. for 1-2 days. The yeast cells were suspended in sterile distilled water. Separately, Aspergillus fumigatus IFO8868 was cultured in a potato dextrose agar medium (manufactured by Nissui Pharmaceutical Co., Ltd.) at 30° C. until the conidia were formed abundantly. The formed conidia were suspended in a sterile physiological saline containing 0.1% of Tween 80. Each of the Candida albicans suspension and the Aspergillus fumigatus suspension was inoculated into a TC broth medium (containing 1.17 g of an yeast carbon base, 0.25 g of ammonium sulfate, 2.0 ml of a 50-fold concentrate of L-glutamic acid-containing MEM amino acid, 20 ml of a 0.5M phosphate buffer of pH 7.5 and 1.33 ml of 7.5% sodium hydrogencarbonate per 100 ml) containing a test compound, so that the final fungal amount became 10^4 spores/ml. Then, culture was conducted at 37° C. for 3 days. Thereafter, the growth of fungi was examined. The minimum concentration of test compound at which the growth of fungi had been inhibited, was taken as MIC (μg/ml).

[2] = test system: Aspergillus fumigatus IFO8868; assay: Minimum inhibitory concentration (MIC) against Aspergillus fumigatus IFO8868; assay type: cell-based; settings: IFO8868, 72 h, TC broth medium, 10^4 spores/ml, 37° C., 3 days
Experimental: as §1, §2

[3] = test system: Candida albicans ON28; assay: Therapeutic effect, oral, mice infected with Candida albicans ON28 (3), Table 2c; assay type: in vivo, ICR strain male mice infected with Candida albicans ON28; settings: average survival days of Ketoconazole taken as 100; Candida albicans 5.7×10^6 cells/mouse i.v.; 0.1 mg/mouse oral, 2 hours after infection; 10 days observation; 10 mice
Experimental: (3) The therapeutic effects of the present compounds, when they were administered orally, were examined using mice infected with Candida albicans ON28.
(§3) Candida albicans ON28 was injected in a proportion of 5.7×10^6 cells/mouse to a group of 10 ICR strain male mice (weight: 19-21 g) intravenously at the tails, whereby the mice were infected with the fungi. […] The relative therapeutic index of the test compound was determined from the average survival days.
The results are shown in Table 2c, in which the relative therapeutic index of each test compound is a value calculated by taking the average survival days Ketoconazole as 100.

[4] = test system: Aspergillus fumigatus IFO8868; assay: Therapeutic effect, oral, mice infected with Aspergillus fumigatus IFO8868 (4), Table 2d; assay type: in vivo; settings: average survival days of Ketoconazole taken as 100; Aspergillus fumigatus 5.8×10^6 cells/mouse i.v.; 0.8 mg/mouse oral, 2 hours after infection and once daily for six consecutive days; 10 days observation; 10 mice
Experimental: (4) The therapeutic effects of the present compounds, when they were administered orally, were examined using mice infected with Aspergillus fumigatus IFO8868.
as §3, with “Aspergillus fumigatus IFO8868” for “Candida albicans ON28”, “5.8×10^6” for “5.7×10^6”
The results are shown in Table 2d, in which the relative therapeutic index of each test compound is a value calculated by taking the average survival days of Ketoconazole as 100.

[5] = Acute toxicity in mice, intravenous; assay type: in vivo; settings: intravenous at the tail, ICR strain male mice, group of 5; 50% solution in polyethylene glycol 300
Experimental: Each of the compounds of Examples 10, 12, 19, 79, 142 and 146 was administered to a group of 5 ICR strain male mice (weight: 29-31 g) intravenously at the tails, and the acute toxicity of each compound was examined.
Each compound was administered in the form of a 50% solution in polyethylene glycol 300.

| SMILES | MIC [1] [µg/mL] | MIC [2] [µg/mL] | Relative therapeutic index [3] | Relative therapeutic index [4] | dose up to which no dead case occurred (acute toxicity) [5] [mg/kg] |
| --- | --- | --- | --- | --- | --- |
| NC(=O)C(F)(F)C(O)(Cn1cncn1)c1ccc(F)cc1F (single isomer, unassigned) [Example 142] | 0.78 (≈ 2.45 µM) | 100 (≈ 314 µM) | 405 | 216 | ≥ 200 |
| CCNC(=O)C(F)(F)C(O)(Cn1cncn1)c1ccc(F)cc1F (single isomer, unassigned) [Example 144] | 0.1 (≈ 0.289 µM) | 6.25 (≈ 18 µM) | – | – | – |
| O=C(NC1CC1)C(F)(F)C(O)(Cn1cncn1)c1ccc(F)cc1F (single isomer, unassigned) [Example 145] | 0.1 (≈ 0.279 µM) | 12.5 (≈ 34.9 µM) | 409 | 353 | – |
| NC(=O)C(F)(F)C(O)(Cn1cncn1)c1ccc(F)cc1Cl (single isomer, unassigned) [Example 146] | 0.39 (≈ 1.17 µM) | 50 (≈ 149 µM) | 418 | 500 | ≥ 200 |
| O=C(NC1(c2ccc(Cl)cc2)CC1)C(F)(F)C(O)(Cn1cncn1)c1ccc(F)cc1F (stereo not shown) [Example 5] | ≤ 0.05 | 12.5 (≈ 26.7 µM) | – | – | – |
| NC(=O)C(F)(F)C(O)(Cn1cncn1)c1ccc(F)cc1F (stereo not shown) [Example 10, 3-(2,4-difluorophenyl)-2,2-difluoro-3-hydroxy-4-(1H-1,2,4-triazol-1-yl)butanamide] | – | – | 414 | 200 | ≥ 200 |
| O=C(NC1CCCC1)C(F)(F)C(O)(Cn1cncn1)c1ccc(F)cc1F (stereo not shown) [Example 20] | ≤ 0.05 | 100 (≈ 259 µM) | – | – | – |
| O=C(NC1CCCCC1)C(F)(F)C(O)(Cn1cncn1)c1ccc(F)cc1F (stereo not shown) [Example 21] | ≤ 0.05 | 100 (≈ 250 µM) | – | – | – |
| O=C(NCc1ccc(Cl)cc1)C(F)(F)C(O)(Cn1cncn1)c1ccc(F)cc1F (stereo not shown) [Example 22] | ≤ 0.05 | 12.5 (≈ 28.2 µM) | – | – | – |
| CC1CN(C(=O)C(F)(F)C(O)(Cn2cncn2)c2ccc(F)cc2F)CC(C)O1 (stereo not shown) [Example 39, 4-[3-(2,4-difluorophenyl)-2,2-difluoro-3-hydroxy-4-(1H-1,2,4-triazol-1-yl)butanoyl]-2,6-dimethylmorpholine] | 6.25 (≈ 15 µM) | 100 (≈ 240 µM) | – | – | – |
| Cc1ccc(NC(=O)C(F)(F)C(O)(Cn2cncn2)c2ccc(F)cc2F)cc1 (stereo not shown) [Example 43] | ≤ 0.05 | 25 (≈ 61.2 µM) | – | – | – |
| Cc1ccc(NC(=O)C(F)(F)C(O)(Cn2cncn2)c2ccc(F)cc2F)c(C)c1 (stereo not shown) [Example 44] | ≤ 0.05 | 1.56 (≈ 3.69 µM) | – | – | – |
| NC(=O)C(F)(Cc1ccccc1)C(O)(Cn1cncn1)c1ccc(F)cc1F (stereo not shown) [Example 56] | 0.39 (≈ 0.999 µM) | 100 (≈ 256 µM) | – | – | – |
| NC(=O)C(F)(F)C(O)(Cn1cncn1)c1ccc(F)cc1Cl (stereo not shown) [Example 79] | 0.78 (≈ 2.33 µM) | 50 (≈ 149 µM) | 405 | 400 | ≥ 200 |
| CCNC(=O)C(F)(F)C(O)(Cn1cncn1)c1cc(F)c(F)cc1F (stereo not shown) [Example 88] | 0.2 (≈ 0.549 µM) | 50 (≈ 137 µM) | – | – | – |
| O=C(Nc1ccc(C(F)(F)F)cc1)C(F)(F)C(O)(Cn1cncn1)c1ccc(F)cc1F (stereo not shown) [Example 136] | 0.025 (≈ 0.0541 µM) | 12.5 (≈ 27 µM) | – | – | – |
| N#CCc1ccc(NC(=O)C(F)(F)C(O)(Cn2cncn2)c2ccc(F)cc2F)cc1 (stereo not shown) [Example 138] | 0.1 (≈ 0.231 µM) | 12.5 (≈ 28.8 µM) | – | – | – |
| COc1ccc(NC(=O)C(F)(F)C(O)(Cn2cncn2)c2ccc(F)cc2F)cc1 (stereo not shown) [Example 139] | 0.05 (≈ 0.118 µM) | 12.5 (≈ 29.5 µM) | – | – | – |

Further lines, with some results ahead:

| MIC [1] [µg/mL] | MIC [2] [µg/mL] | SMILES | Relative therapeutic index [3] | Relative therapeutic index [4] | dose up to which no dead case occurred (acute toxicity) [5] [mg/kg] |
| --- | --- | --- | --- | --- | --- |
| 0.2 (≈ 0.602 µM) | 25 (≈ 75.2 µM) | CNC(=O)C(F)(F)C(O)(Cn1cncn1)c1ccc(F)cc1F (single isomer, unassigned) [Example 143] | 450 | 242 | – |
| 0.1 (≈ 0.287 µM) | 6.25 (≈ 17.9 µM) | CNC(=O)C(F)(F)C(O)(Cn1cncn1)c1ccc(F)cc1Cl (single isomer, unassigned) [Example 147] | 414 | 526 | – |
| 0.1 (≈ 0.267 µM) | 3.13 (≈ 8.35 µM) | O=C(NC1CC1)C(F)(F)C(O)(Cn1cncn1)c1ccc(F)cc1Cl (single isomer, unassigned) [Example 148] | – | – | – |
| 0.39 (≈ 1.09 µM) | 12.5 (≈ 35 µM) | O=C(NC1CC1)C(F)(F)C(O)(Cn1cncn1)c1ccccc1Cl (stereo not shown) [Example 3] | – | – | – |
| 0.1 (≈ 0.269 µM) | 50 (≈ 134 µM) | CC1(NC(=O)C(F)(F)C(O)(Cn2cncn2)c2ccc(F)cc2F)CC1 (stereo not shown) [Example 4] | – | – | – |
| 0.78 (≈ 2.29 µM) | 25 (≈ 73.5 µM) | O=C(NC1CC1)C(F)(F)C(O)(Cn1cncn1)c1ccccc1F (stereo not shown) [Example 8, N-cyclopropyl-2,2-difluoro-3-(2-fluorophenyl)-3-hydroxy-4-(1H-1,2,4-triazol-1-yl)butanamide] | – | – | – |
| 0.2 (≈ 0.602 µM) | 100 (≈ 301 µM) | CNC(=O)C(F)(F)C(O)(Cn1cncn1)c1ccc(F)cc1F (stereo not shown) [Example 11] | 423 | 174 | – |
| ≤ 0.05 | 25 (≈ 69.4 µM) | CCCNC(=O)C(F)(F)C(O)(Cn1cncn1)c1ccc(F)cc1F (stereo not shown) [Example 16] | – | – | – |
| 0.1 (≈ 0.279 µM) | 12.5 (≈ 34.9 µM) | C=CCNC(=O)C(F)(F)C(O)(Cn1cncn1)c1ccc(F)cc1F (stereo not shown) [Example 17] | – | – | – |
| 0.2 (≈ 0.555 µM) | 50 (≈ 139 µM) | CC(C)NC(=O)C(F)(F)C(O)(Cn1cncn1)c1ccc(F)cc1F (stereo not shown) [Example 33] | – | – | – |
| ≤ 0.05 | 25 (≈ 66.8 µM) | CC(C)CNC(=O)C(F)(F)C(O)(Cn1cncn1)c1ccc(F)cc1F (stereo not shown) [Example 35] | – | – | – |
| ≤ 0.05 | 50 (≈ 117 µM) | O=C(Nc1ccc(Cl)cc1)C(F)(F)C(O)(Cn1cncn1)c1ccc(F)cc1F (stereo not shown) [Example 42, N-(4-chlorophenyl)-3-(2,4-difluorophenyl)-2,2-difluoro-3-hydroxy-4-(1H-1,2,4-triazol-1-yl)butanamide] | – | – | – |
| ≤ 0.05 | 50 (≈ 118 µM) | COc1ccccc1NC(=O)C(F)(F)C(O)(Cn1cncn1)c1ccc(F)cc1F (stereo not shown) [Example 45] | – | – | – |
| 0.1 (≈ 0.267 µM) | 12.5 (≈ 33.4 µM) | CC(C)(C)NC(=O)C(F)(F)C(O)(Cn1cncn1)c1ccc(F)cc1F (stereo not shown) [Example 51] | – | – | – |
| 0.39 (≈ 1.26 µM) | 50 (≈ 161 µM) | CCNC(=O)C(F)(F)C(O)(Cn1cncn1)c1ccccc1 (stereo not shown) [Example 69] | – | – | – |
| 0.39 (≈ 1.24 µM) | 50 (≈ 159 µM) | CNC(=O)C(F)(F)C(O)(Cn1cncn1)c1ccccc1F (stereo not shown) [Example 72] | – | – | – |
| 0.39 (≈ 1.19 µM) | 25 (≈ 76.2 µM) | CCNC(=O)C(F)(F)C(O)(Cn1cncn1)c1ccccc1F (stereo not shown) [Example 73] | – | – | – |
| 0.78 (≈ 2.36 µM) | 12.5 (≈ 37.8 µM) | CNC(=O)C(F)(F)C(O)(Cn1cncn1)c1ccccc1Cl (stereo not shown) [Example 74] | – | – | – |
| 0.2 (≈ 0.58 µM) | 6.25 (≈ 18.1 µM) | CCNC(=O)C(F)(F)C(O)(Cn1cncn1)c1ccccc1Cl (stereo not shown) [Example 75] | – | – | – |
| 0.39 (≈ 1.12 µM) | 12.5 (≈ 35.8 µM) | CNC(=O)C(F)(F)C(O)(Cn1cncn1)c1ccc(F)cc1Cl (stereo not shown) [Example 80] | 455 | 416 | – |
| 0.1 (≈ 0.276 µM) | 3.13 (≈ 8.63 µM) | CCNC(=O)C(F)(F)C(O)(Cn1cncn1)c1ccc(F)cc1Cl (stereo not shown) [Example 81] | – | – | – |
| 0.1 (≈ 0.276 µM) | 25 (≈ 68.9 µM) | CCNC(=O)C(F)(F)C(O)(Cn1cncn1)c1ccc(Cl)cc1F (stereo not shown) [Example 83] | – | – | – |
| 0.1 (≈ 0.256 µM) | 12.5 (≈ 32 µM) | O=C(NC1CC1)C(F)(F)C(O)(Cn1cncn1)c1ccc(Cl)cc1Cl (stereo not shown) [Example 85] | – | – | – |
| 0.05 (≈ 0.134 µM) | 12.5 (≈ 33.4 µM) | CCCCNC(=O)C(F)(F)C(O)(Cn1cncn1)c1ccc(F)cc1F (stereo not shown) [Example 114] | – | – | – |
| 0.39 (≈ 1.13 µM) | 25 (≈ 72.2 µM) | CCNC(=O)C(F)(F)C(O)(Cn1cncn1)c1cc(F)ccc1F (stereo not shown) [Example 117] | – | – | – |

— patent publication US5605921A, “Triazole derivatives and salts thereof, and antifungal agent containing the same” (Toyama Chemical Co., Ltd., priority 1991, dated 1997)
